Assays:
[1] = tested on: SARS-CoV-2 Delta, G(B.1.617.2), hCoV-19/Korea/KDCA119861/2021; settings: Vero cells
[2] = tested on: SARS-CoV-2 Delta, G(B.1.617.2), hCoV-19/Korea/KDCA119861/2021; assay: microbe, parasite or virus in culture; settings: Severe acute respiratory syndrome coronavirus 2, Vero
[3] = tested on: SARS-CoV-2 Alpha, GR(B.1.1.7), hCoV-19/Korea/KDCA51463/2021; assay: microbe, parasite or virus in culture; settings: Severe acute respiratory syndrome coronavirus 2, Vero
[4] = tested on: SARS-CoV-2 Alpha, GR(B.1.1.7), hCoV-19/Korea/KDCA51463/2021; settings: Vero cells
[5] = tested on: SARS-CoV-2 Gamma, GR(P.1), hCoV-19/Korea/KDCA95637/2021; assay: microbe, parasite or virus in culture; settings: Severe acute respiratory syndrome coronavirus 2, Vero
[6] = tested on: SARS-CoV-2 Omicron, GRA(B.1.1.529), hCoV-19/Korea/KDCA447321/2021; settings: Vero cells
[7] = tested on: SARS-CoV-2 Beta, GH(B.1.351), hCoV-19/Korea/KDCA55905/2021; settings: Vero cells
[8] = tested on: SARS-CoV-2 Gamma, GR(P.1), hCoV-19/Korea/KDCA95637/2021; settings: for SI, ratio of CC50 to EC50: Gamma, Vero cells
[9] = tested on: SARS-CoV-2 Beta, GH(B.1.351), hCoV-19/Korea/KDCA55905/2021; assay: microbe, parasite or virus in culture; settings: Severe acute respiratory syndrome coronavirus 2, Vero
[10] = tested on: SARS-CoV-2 Omicron, GRA(B.1.1.529), hCoV-19/Korea/KDCA447321/2021; assay: microbe, parasite or virus in culture; settings: Severe acute respiratory syndrome coronavirus 2, Vero

CCOC(=O)C1(c2ccccc2)CCN(CCC(C#N)(c2ccccc2)c2ccccc2)CC1 [Diphenoxylate, diphenoxylate]
SI, ratio of CC50 to EC50 [1]: > 36.2 | EC50 [2]: 2.8 ± 0.6 µM | EC50 [3]: 1.9 ± 0.2 µM | SI, ratio of CC50 to EC50 [4]: > 52.5 | EC50 [5]: 1.5 ± 0.1 µM | SI, ratio of CC50 to EC50 [6]: > 31.3 | SI, ratio of CC50 to EC50 [7]: > 20.4 | potency relative to remdesivir (times more potent) [8]: up to 6.5 times | SI, ratio of CC50 to EC50 [8]: > 68.0 | EC50 [9]: 4.9 ± 0.3 µM | EC50 [10]: 3.2 ± 0.6 µM

CCC(CC)COC(=O)[C@H](C)N[P@](=O)(OC[C@H]1O[C@@](C#N)(c2ccc3c(N)ncnn23)[C@H](O)[C@@H]1O)Oc1ccccc1 [RDV, remdesivir]
SI, ratio of CC50 to EC50 [1]: > 23.6 | EC50 [2]: 4.2 µM | EC50 [3]: 7 ± 1 µM | EC50 [5]: 9.7 ± 0.7 µM | SI, ratio of CC50 to EC50 [6]: > 60.7 | SI, ratio of CC50 to EC50 [7]: > 8.2 | SI, ratio of CC50 to EC50 [8]: > 10.3 | EC50 [9]: 12.2 ± 0.4 µM | EC50 [10]: 1.6 ± 0.5 µM
